Assay results published in ChEMBL document CHEMBL5137093, “Improving Drug Delivery While Tailoring Prodrug Activation to Modulate Cmax and Cmin by Optimization of (Carbonyl)oxyalkyl Linker-Based Prodrugs of Atazanavir” (J Med Chem, 2022).

Key:
[1] = Clearance in Sprague-Dawley rat at 1 mg/kg,iv measured upto 24 hrs by UPLC-MS/MS analysis; assay type: ADME, organism-based; conditions: in vivo
[2] = AUClast in Sprague-Dawley rat at 30 mg/kg,po measured upto 24 hrs by UPLC-MS/MS analysis; assay type: ADME, organism-based; parameters: time < 24 hrs, dose 30 mg/kg, route po; conditions: in vivo
[3] = Ratio of Cmax/Cmin in Sprague-Dawley rat at 1 mg/kg,iv measured after 24 hrs by UPLC-MS/MS analysis; assay type: ADME, organism-based; conditions: in vivo
[4] = Cmin in Sprague-Dawley rat at 1 mg/kg,iv measured after 24 hrs by UPLC-MS/MS analysis; assay type: ADME, organism-based; conditions: in vivo, read-out: Cmin
[5] = AUClast in Sprague-Dawley rat at 1 mg/kg,iv measured upto 24 hrs by UPLC-MS/MS analysis; assay type: ADME, organism-based; parameters: time < 24 hrs, dose 1 mg/kg, route iv; conditions: in vivo
[6] = AUClast in Sprague-Dawley rat at 3 mg/kg,po measured upto 24 hrs by UPLC-MS/MS analysis; assay type: ADME, organism-based; parameters: time < 24 hrs, dose 3 mg/kg, route po; conditions: in vivo
[7] = Volume of distribution at steady state in Sprague-Dawley rat at 1 mg/kg,iv measured upto 24 hrs by UPLC-MS/MS analysis; assay type: ADME, organism-based; conditions: in vivo, read-out: Vdss
[8] = Aqueous solubility of compound at pH 6.5 by UPLC analysis; assay type: physicochemical; conditions: aqueous medium, read-out: solubility
[9] = Cmax in Sprague-Dawley rat at 30 mg/kg,po measured upto 24 hrs by UPLC-MS/MS analysis; assay type: ADME, organism-based; parameters: time < 24 hrs, dose 30 mg/kg, route po; conditions: in vivo
[10] = Tmax in Sprague-Dawley rat at 30 mg/kg,po measured upto 24 hrs by UPLC-MS/MS analysis; assay type: ADME, organism-based; conditions: in vivo
[11] = Half life in Sprague-Dawley rat at 1 mg/kg,iv measured upto 24 hrs by UPLC-MS/MS analysis; assay type: ADME, organism-based; conditions: in vivo
[12] = Ratio of Cmax/Cmin in Sprague-Dawley rat at 3 mg/kg,po measured after 24 hrs by UPLC-MS/MS analysis; assay type: ADME, organism-based; conditions: in vivo
[13] = Aqueous solubility of compound at pH 4 by UPLC analysis; assay type: physicochemical; conditions: aqueous medium, read-out: solubility
[14] = Tmax in Sprague-Dawley rat at 3 mg/kg,po measured upto 24 hrs by UPLC-MS/MS analysis; assay type: ADME, organism-based; conditions: in vivo
[15] = molecular target: Voltage-gated inwardly rectifying potassium channel KCNH2 (Homo sapiens, UniProt Q12809); test: Inhibition of human ERG by patch-clamp assay; assay type: toxicity
Chain of Voltage-gated inwardly rectifying potassium channel KCNH2 (Q12809 whole entry): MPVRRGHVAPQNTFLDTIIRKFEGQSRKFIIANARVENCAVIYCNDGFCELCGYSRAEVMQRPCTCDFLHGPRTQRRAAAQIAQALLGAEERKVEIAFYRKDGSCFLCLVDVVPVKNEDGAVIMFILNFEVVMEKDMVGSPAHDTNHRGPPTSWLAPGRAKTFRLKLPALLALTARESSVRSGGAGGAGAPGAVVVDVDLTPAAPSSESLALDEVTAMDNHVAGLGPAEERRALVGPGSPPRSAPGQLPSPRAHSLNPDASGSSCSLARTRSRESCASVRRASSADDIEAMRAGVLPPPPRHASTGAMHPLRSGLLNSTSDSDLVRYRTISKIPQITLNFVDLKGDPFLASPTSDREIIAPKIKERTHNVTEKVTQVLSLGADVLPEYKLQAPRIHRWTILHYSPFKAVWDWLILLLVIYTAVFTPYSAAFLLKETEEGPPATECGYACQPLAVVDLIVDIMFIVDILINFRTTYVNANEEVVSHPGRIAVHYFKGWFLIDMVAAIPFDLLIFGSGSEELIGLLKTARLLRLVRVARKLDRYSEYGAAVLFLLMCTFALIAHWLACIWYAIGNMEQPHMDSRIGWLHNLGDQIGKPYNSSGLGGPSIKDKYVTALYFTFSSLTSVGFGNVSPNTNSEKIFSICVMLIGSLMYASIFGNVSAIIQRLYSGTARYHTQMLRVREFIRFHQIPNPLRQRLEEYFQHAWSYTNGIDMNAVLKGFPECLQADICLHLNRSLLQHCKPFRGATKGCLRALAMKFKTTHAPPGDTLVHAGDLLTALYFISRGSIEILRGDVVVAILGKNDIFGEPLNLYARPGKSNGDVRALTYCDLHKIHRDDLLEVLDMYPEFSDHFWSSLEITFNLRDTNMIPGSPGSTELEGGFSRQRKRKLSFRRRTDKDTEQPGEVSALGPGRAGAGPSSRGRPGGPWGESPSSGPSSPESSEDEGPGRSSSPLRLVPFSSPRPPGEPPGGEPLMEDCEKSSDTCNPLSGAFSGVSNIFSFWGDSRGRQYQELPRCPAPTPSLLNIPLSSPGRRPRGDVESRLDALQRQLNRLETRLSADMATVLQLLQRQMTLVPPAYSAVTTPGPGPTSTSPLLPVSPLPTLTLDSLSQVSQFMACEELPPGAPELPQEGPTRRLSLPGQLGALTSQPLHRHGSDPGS

[16] = Cmax in Sprague-Dawley rat at 1 mg/kg,iv measured upto 24 hrs by UPLC-MS/MS analysis; assay type: ADME, organism-based; parameters: dose 1 mg/kg, time < 24 hrs, route iv; conditions: in vivo
[17] = Cmax in Sprague-Dawley rat at 3 mg/kg,po measured upto 24 hrs by UPLC-MS/MS analysis; assay type: ADME, organism-based; parameters: dose 3 mg/kg, time < 24 hrs, route po; conditions: in vivo

COC(=O)N[C@H](C(=O)N[C@@H](Cc1ccccc1)[C@@H](O)CN(Cc1ccc(-c2ccccn2)cc1)NC(=O)[C@@H](NC(=O)OC)C(C)(C)C)C(C)(C)C [ATAZANAVIR]
clearance [1]: 38.7 mL/min/kg | AUC(0-t) at 24 h [2]: 20.9 µM·h | Ratio [3]: 8978.6 | concentration at 24 h [4]: 0.28 nM | AUC(0-t) at 24 h [5]: 0.636 µM·h | AUC(0-t) at 24 h [6]: 0.384 µM·h | Vd [7]: 1.5 L/kg | solubility [8]: < 1 µg/mL | Cmax [9]: 5110 nM | Tmax [10]: 3 h | half-life [11]: 7 h | Ratio [12]: 1064 | solubility [13]: < 1 µg/mL | Tmax [14]: 0.5 h | IC50 [15]: ≥ 30 µM | Cmax [16]: 2510 nM | Cmax [17]: 266 nM
